Patent US12351834B2, “Compositions and methods for the treatment of ornithine transcarbamylase deficiency” (Arcturus Therapeutics, Inc., priority 2020, dated 2025)
Where two headings read alike, the source gives them in different places. Values belong to the molecule of their own block, whether it stands above or below them.

Experiments:
[1] = In vivo tissue lipid clearance in Balb/c mice; parameters: species or system mouse; conditions: for Tmax / half-life / concentration at 28 days: Balb/c, mouse; for ranking of lipid level by tissue / time post-dose by which lipid no longer detected in plasma: single IV bolus 1 mg/kg of the lipid formulation; for concentration at 28 days: 28 days post-dose
Protocol: Additional studies were conducted to evaluate the in vivo tissue clearance profile of Lipid #7 and Lipid #3 in Balb/c mice. The clearance profiles in mouse tissue and plasma can be found in FIG. 25 (for Lipid #7) and FIG. 26 (for Lipid #3). All animals received a single intravenous bolus treatment of 1 mg/kg of the Lipid #7 formulation at a dosing volume of 10 mL/kg. Plasma, liver, kidney, and spleen were collected from mice (n=3 mice per timepoint) at 0, 2, 15, 30 minutes; 1, 2, 4, 6, 8, 12, 24, 48 hours; and 5, 7, 21, 28 days post-dose. All samples were analyzed for Lipid #7 concentrations.
All animals received a single intravenous bolus treatment of 1 mg/kg of the Lipid #3 formulation at a dosing volume of 10 mL/kg. Plasma was collected from mice (n=3 per timepoint) at 0.25, 1, 2, 4, 6, 12, 24, 120, and 168 hours post-dose. Liver, kidney, and spleen were collected from mice (n=3 per timepoint) at 0.033, 0.25, 1, 2, 4, 6, 12, 24, 120, and 168 hours; 1, 2, 3, 4-weeks post-dose. Heart, brain and lungs were collected from mice (n=3 per timepoint) at 0.25 hours; 1, 2-weeks post-dose. Only samples from 0.25 hrs to 1-week post-dose were analyzed for Lipid #3 tissue concentrations.

Spf/ash mice [2] = assay: Western Blot of mitochondrial and cytosolic liver fractions of Spf/ash mice; format: in vivo, mouse
Protocol: Spf/ash mice received an IV injection with either PBS or lipid-formulated (as described in Example 1) OTC-mRNAs at 1 mg/kg and 3 mg/kg. WT mice were used as internal controls. Livers were harvested from the mice and sample fractionation was performed on the liver samples, separating the cytosolic and mitochondrial fractions. OTC levels were measured by Western Blot (WB) using human specific (hOTC) and crossreactive (crOTC) antibodies (FIG. 14). […] (CoxIV) was used as a mitochondrial control. OTC protein expression levels were measured by near-infrared fluorescent imaging systems and normalized to total protein.
Spf/ash mice received an IV injection with either PBS or lipid-formulated OTC-mRNAs at 3 mg/kg. WT mice were used as internal controls. Sample fractionation was performed on liver samples harvested from the mice, separating the cytosolic and mitochondrial fractions. OTC levels were measured by Western Blot using a human specific antibody. OTC protein expression levels were measured by near-infrared fluorescent imaging systems and both fractions, normalized to total protein, were plotted (FIG. 15). […] The 2260 compound includes a modified mitochondrial signaling peptide sequence provided herein.

Spf/ash mice [3] = assay: Urinary orotate levels in Spf/ash mice; format: in vivo, mouse; conditions: 1 mg/kg and 3 mg/kg IV
Protocol: Spf/ash mice received an IV injection with either PBS or lipid-formulated OTC-mRNA construct 1799.7 (5MeOU chemistry) at three different doses: 0.3 mg/kg, 1 mg/kg and 3 mg/kg. Urinary orotate levels were determined in untreated wild-type (WT) and both untreated and treated Spf/ash mice. A urinary orotate time course was performed in Spf/ash and WT mice, and urinary orotate levels were measured at each timepoint. The results can be seen in FIG. 12. Urinary orotate was normalized to creatinine, which is represented in the graph on the y-axis throughout the time course and served as a proof-of-concept of functional restoration of OTC activity post-injection.
Spf/ash mice received an IV injection with either PBS or lipid-formulated (as described in Example 1) OTC-mRNA at 1 mg/kg and 3 mg/kg. WT mice were included as an internal control. Urinary orotate levels were measured at 0, 1, 3, 7 and 14 days, and levels were normalized to creatinine (FIG. 16).

[4] = kidney, 1 mg/kg IV, read-out: half-life, kidney (converted)
[5] = liver, 1 mg/kg IV, read-out: half-life, liver (converted)
[6] = plasma, 1 mg/kg IV, read-out: half-life, plasma (converted)

- tissue clearance assessment ([1]; 1 mg/kg IV): rapid tissue clearance
- detection in brain tissue ([1]; 1 mg/kg IV, either time point post-dose): not detected in brain tissue
- time post-dose through which concentrations persisted, all other tissues ([1]; 1 mg/kg IV, close to LLOQ): 120 h
- time post-dose through which concentrations persisted, liver ([1]; 1 mg/kg IV, close to LLOQ): 168 h
- Tmax ([1]; kidney, 1 mg/kg IV, read-out: Tmax, kidney): 0.033 to 1 h
- half-life [1, 4]: 19 h
- Tmax ([1]; liver, 1 mg/kg IV, read-out: Tmax, liver): 0.033 to 1 h
- half-life [1, 5]: 22 h
- half-life [1, 6]: 0.45 h
- Tmax ([1]; spleen, 1 mg/kg IV, read-out: Tmax, spleen): 1 to 2 h
- half-life ([1]; spleen, 1 mg/kg IV, read-out: half-life, spleen (converted)): 24 h
- time post-dose by which lipid no longer detected in plasma [1]: ≤ 4 h
Molecule: CCCCCC/C=C\COC(=O)CCCCCN(CCCCCC(=O)OC(CCCCCCC)CCCCCCC)C(=O)SCCN(C)C [Lipid #3]
- ranking of lipid level by tissue [1]: liver>plasma>spleen>kidney>lung>heart>brain

- half-life [1, 4]: 234 h
- concentration at 28 days ([1]; kidney, 1 mg/kg IV, read-out: lipid concentration in the kidney): 2.34 ng/mL
- half-life [1, 5]: 84 h
- concentration at 28 days ([1]; liver, 1 mg/kg IV, read-out: lipid concentration in the liver): 17.2 ng/mL
- half-life [1, 6]: 57 h
- concentration at 28 days ([1]; spleen, 1 mg/kg IV, read-out: lipid concentration in the spleen): 18.4 ng/mL
- ranking of lipid level by tissue [1]: liver>spleen>plasma>kidney
- time post-dose by which lipid no longer detected in plasma [1]: ≤ 336 h
Molecule: CCCCCCCC(CCCCCCC)OC(=O)CCCN(CCCC(=O)OC(CCCCCCC)CCCCCCC)C(=O)SCCCN(C)C [Lipid #7]

B1: Construct 2260: mRNA construct, SEQ ID NO: 251, encodes modified human OTC protein of SEQ ID NO: 4 (nucleic acid)
sense: AGGAUUAUUACAUCAAAACAAAAAGCCGCCACCAUGCUGGUAUUCAACCUGCGCAUCCUGCUGAACAACGCCGCCUUCCGCAACGGCCACAACUUCAUGGUGCGCAACUUCCGCUGCGGCCAGCCCCUGCAGAACCGGGUGCAGCUGAAGGGCCGCGACCUGCUGACCCUGAAGAACUUCACCGGCGAGGAGAUCCGGUACAUGCUGUGGCUGAGCGCCGACCUGAAGUUCCGCAUCAAGCAGAAGGGCGAGUACCUGCCCCUGCUGCAGGGCAAGAGCCUGGGCAUGAUCUUCGAGAAGCGCAGCACCCGCACCCGCCUGAGCACCGAGACAGGCUUCGCCCUGCUGGGCGGCCACCCCUGCUUCCUGACCACCCAGGACAUCCACCUGGGCGUGAACGAGAGCCUGACCGACACCGCCCGCGUGCUGAGCAGCAUGGCCGACGCCGUGCUGGCCCGCGUGUACAAGCAGAGCGACCUGGACACCCUGGCCAAGGAGGCCAGCAUCCCCAUCAUCAACGGCCUGAGCGACCUGUACCACCCCAUCCAGAUCCUGGCCGACUACCUGACCCUGCAGGAGCACUACAGCAGCCUGAAGGGCCUGACCCUGAGCUGGAUCGGCGACGGCAACAACAUCCUGCACAGCAUCAUGAUGAGCGCCGCCAAGUUCGGCAUGCACCUGCAGGCCGCCACCCCCAAGGGCUACGAGCCCGACGCCAGCGUGACCAAGCUGGCCGAGCAGUACGCCAAGGAGAACGGCACCAAGCUGCUGCUGACCAACGACCCCCUGGAGGCCGCCCACGGCGGCAACGUGCUGAUCACCGACACCUGGAUCAGCAUGGGCCAGGAGGAGGAGAAGAAGAAGCGCCUGCAGGCCUUCCAGGGCUACCAGGUGACCAUGAAGACCGCCAAGGUGGCCGCCAGCGACUGGACCUUCCUGCACUGCCUGCCCCGCAAGCCCGAGGAGGUGGACGACGAGGUGUUCUACAGCCCCCGCAGCCUGGUGUUCCCCGAGGCCGAGAACCGCAAGUGGACCAUCAUGGCCGUGAUGGUGAGCCUGCUGACCGACUACAGCCCCCAGCUGCAGAAGCCCAAGUUCUGAGGUCUCUAGUAAUGAGCUGGAGCCUCGGUAGCCGUUCCUCCUGCCCGCUGGGCCUCCCAACGGGCCCUCCUCCCCUCCUUGCACCGGCCCUUCCUGGUCUUUGAAUAAAGUCUGAGUGGGCAGCAUCUAG
- targeting of expressed OTC to the mitochondria (Spf/ash mice [2]; 1 mg/kg and 3 mg/kg IV, liver fractions): can efficiently target the mitochondria
- human OTC protein level in mitochondrial fraction (Spf/ash mice [2]; 3 mg/kg IV, liver, normalized to total protein): delivers more human OTC than 2016 in the mitochondria
- dose dependence of urinary orotate reduction (Spf/ash mice [3]): dose-dependent manner
- duration of reduced urinary orotate levels (Spf/ash mice [3]; measured at 0, 1, 3, 7 and 14 days): up to 14 days
